Laboratory results from ChEMBL document CHEMBL3585312, “Anti-MRSA activity of isoplagiochin-type macrocyclic bis(bibenzyl)s is mediated through cell membrane damage” (2015).
≈ marks a conversion by molar mass, not a printed value. Calls of active or inactive are those of the source. No cut-off for these calls is given here.

Columns and labels:
Type in all cases: functional
[1] = test system: Staphylococcus aureus; assay: Induction of methicillin-resistant Staphylococcus aureus N315 membrane damage using ethidium bromide assessed as fluorescence intensity at 100 ug/ml by ethidium bromide outflow assay
[2] = test system: Staphylococcus aureus; assay: Induction of methicillin-resistant Staphylococcus aureus N315 membrane damage assessed as increase in Na+ concentration at 10 ug/ml after 90 mins by coupled plasma optical emission spectrometry
[3] = test system: Staphylococcus aureus; assay: Induction of methicillin-resistant Staphylococcus aureus N315 membrane damage assessed as decrease in K+ concentration at 10 ug/ml after 90 mins by coupled plasma optical emission spectrometry
[4] = test system: Staphylococcus aureus; assay: Induction of methicillin-resistant Staphylococcus aureus N315 membrane damage using ethidium bromide assessed as fluorescence intensity at 100 ug/ml by ethidium bromide inflow assay
[5] = test system: Staphylococcus aureus; assay: Induction of methicillin-resistant Staphylococcus aureus N315 membrane damage using ethidium bromide assessed as fluorescence intensity at 10 ug/ml by ethidium bromide outflow assay
[6] = test system: Staphylococcus aureus; assay: Induction of methicillin-resistant Staphylococcus aureus N315 membrane damage using ethidium bromide assessed as fluorescence intensity at 10 ug/ml by ethidium bromide inflow assay
[7] = test system: Staphylococcus aureus; assay: Antimicrobial activity against methicillin-resistant Staphylococcus aureus N315 after 24 hrs by broth microdilution method; details: N315, 24 h

Structure (SMILES)	Activity [1]	Activity [2]	Activity [3]	Activity [4]	Activity [5]	Activity [6]	MIC [7] [µg/mL]
Oc1ccc2c(c1)CCc1ccc(cc1)-c1cccc(c1)CCc1ccc-2c(O)c1	inactive	inactive	inactive	inactive	–	–	–
Oc1ccc2c(c1)CCc1cccc(c1)-c1cccc(c1)CCc1ccc-2c(O)c1	–	Active	Active	–	Active	Active	0.5 (≈ 1.27 µM)
Oc1ccc2c(c1)CCc1ccccc1-c1cccc(c1)CCc1ccc-2c(O)c1	–	–	–	–	–	–	2 (≈ 5.1 µM)
Oc1ccc2c(c1)CCc1ccc(cc1)Oc1cccc(c1)CCc1ccc-2c(O)c1	–	–	–	–	Active	Active	–
